Test results from patent US20080305186A1, “Method and Composition for the Treatment of Cardiac Hypertrophy” (BOARD OF REGENTS, THE UNIVERSITY OF TEXAS SYSTEM, priority 2007, published 2008).

System: cardiac gene expression
Test: Microarray analysis of cardiac gene expression (GeneChip Mouse Genome 430 2.0)
Assay type: in vivo, mice
Description: Microarray Sample Preparation and Analysis. Animal hearts were rapidly removed, and the atria and right ventricles were cut and immediately plunged into TRIzol Reagent (Life Technologies). Total RNA was isolated following the manufacturer's instructions, purified by phenol-chloroform extraction and then ethanol precipitation, and 20 μg further processed for microarray analysis. Briefly, cDNA synthesis, in vitro transcription, and labeling and fragmentation to produce the oligonucleotide probes were performed as instructed by the GeneChip manufacturer (Affymetrix). The probes were first hybridized to a test array (Affymetrix) and then to the GeneChip Mouse Genome 430 2.0 Array, using the GeneChip Hybridization Oven 640. The chips were washed in a GeneChip Fluidics Station 450 (Affymetrix), and the results were visualized with a GeneChip G7 scanner (Affymetrix). RMA normalization, pairwise comparisons, Student's t test and Benjamini and Hochberg correction were subsequently performed using GeneSifter (VizX Labs, Seattle, Wash.) and Spotfire DecisionSite 8.3 (Spotfire, Inc., Somerville, Mass.).
Effects on Gene Expression Profile. […] One mouse heart was used for each array, and was performed in triplicate, generating a total of 12 arrays. GeneSifter was used to perform RMA normalization, pairwise comparisons of averaged signal intensity values, and Student's t-test with Benjamini and Hochberg correction, and Spotfire was used to perform pairwise comparisons. […] Additionally, genes that were altered between any two N or cardiac hypertrophy samples were removed, as these alterations most likely represented normal variations between mice.

Which results are given for C[C@H]1c2cccc(O)c2C(=O)C2=C(O)[C@]3(O)C(=O)C(C(N)=O)=C(O)[C@@H](N(C)C)[C@@H]3[C@@H](O)[C@@H]21 [doxycycline]?
FC EST (GenBank BM245060, vs mice given only isoproterenol): −2.3; FC Fos-like antigen 2 (Fosl2) (GenBank BM245170, vs mice given only isoproterenol): −2.6; FC ESTs (GenBank BM246377, vs mice given only isoproterenol): −1.9; FC Cytoglobin (Cygb) (GenBank BM899392, vs mice given only isoproterenol): 1.8; FC Flavin containing monooxygenase 2 (Fmo2) (GenBank BM936480, vs mice given only isoproterenol): −2.7; FC Tripartite motif protein 24 (Trim24) (GenBank BM945528, heart, drug + isoproterenol vs isoproterenol-only mice, CH vs normal FC 1.6): −1.8 fold; FC Headcase homolog (Heca) (GenBank BQ031006, vs mice given only isoproterenol): −2.2; FC SERTA domain containing 4 (Sertad4) (GenBank BQ174721, vs mice given only isoproterenol): 2.0; FC EST (GenBank BQ176399, vs mice given only isoproterenol): −1.6; FC Sema domain, seven thrombospondin repeats (type 1 and type 1-like), transmembrane domain (TM) and short cytoplasmic domain, (semaphorin) 5A (Sema5a) (GenBank BQ176610, vs mice given only isoproterenol): −3.9; FC Transmembrane protein 38B (Tmem38b) (GenBank C77858, heart, drug + isoproterenol vs isoproterenol-only mice, CH vs normal FC 2.1): −1.5 fold; FC Mitochondrial ribosomal protein L45 (Mrpl45) (GenBank C79823, vs mice given only isoproterenol): 2.4; FC Leukemia inhibitory factor receptor (Lifr) (GenBank D17444, vs mice given only isoproterenol): −2.0; FC Tripartite motif protein 25 (Trim25) (GenBank D63902, heart, drug + isoproterenol vs isoproterenol-only mice, CH vs normal FC 1.7): −2.1 fold; FC L20048 (GenBank L20048, vs mice given only isoproterenol): −1.9; FC Cytoplasmic beta-actin (Actb) (GenBank M12481, vs mice given only isoproterenol): 3.1; FC Multidrug resistae protein (MDR) (Acb1a) (GenBank M30697, vs mice given only isoproterenol): −2.6; FC Thymoma viral proto-oogene 2 (Akt2) (GenBank NM_007434, heart, drug + isoproterenol vs isoproterenol-only mice, CH vs normal FC −1.8): 1.7 fold; FC Early B-cell factor (Ebf1) (GenBank NM_007897, vs mice given only isoproterenol): 2.1; FC Epidermal growth factor receptor pathway substrate 8 (Eps8) (GenBank NM_007945, vs mice given only isoproterenol): −1.8; FC Tumor necrosis factor receptor superfamily, member 6 (Tnfrsf6) (Fas) (GenBank NM_007987, heart, drug + isoproterenol vs isoproterenol-only mice, CH vs normal FC 2.8): −2.4 fold; FC Glutamate-cysteine ligase, modifier subunit (Gclm) (GenBank NM_008129, vs mice given only isoproterenol): −1.8; FC Jun-B oogene (Junb) (GenBank NM_008416, vs mice given only isoproterenol): −2.0; FC Potassium voltage-gated channel, shaker-related subfamily, member 5 (Kcna5) (GenBank NM_008419, vs mice given only isoproterenol): −2.4; FC NM_008808 (GenBank NM_008808, vs mice given only isoproterenol): 1.7; FC Pphospholipid scramblase 2 (Plscr2) (GenBank NM_008880, vs mice given only isoproterenol): −1.8; FC S100 calcium binding protein A9 (calgranulin B) (S100a9) (GenBank NM_009114, vs mice given only isoproterenol): −14.0; FC Tubulin, alpha 3 (Tuba3) (GenBank NM_009446, heart, drug + isoproterenol vs isoproterenol-only mice, CH vs normal FC −1.9): 1.9 fold; FC Tubulin, alpha 4 (Tuba4) (GenBank NM_009447 (first entry, r874), heart, drug + isoproterenol vs isoproterenol-only mice, CH vs normal FC −4.3): 4.7 fold; FC Tubulin, alpha 4 (Tuba4) (GenBank NM_009447 (second entry, r876), heart, drug + isoproterenol vs isoproterenol-only mice, CH vs normal FC −6.2): 5.8 fold; FC Glucocorticoid-induced leucine zipper (Gilz) (Dsip1) (GenBank NM_010286, vs mice given only isoproterenol): −2.5; FC Lymphocyte antigen 6 complex, locus C (Ly6c) (GenBank NM_010741, vs mice given only isoproterenol): −2.1; FC Matrix metalloproteinase 3 (Mmp3) (GenBank NM_010809, vs mice given only isoproterenol): −2.9; FC Notch gene homolog 4, (Drosophila) (Notch4) (GenBank NM_010929, vs mice given only isoproterenol): −2.2; FC Proline dehydrogenase (Prodh) (GenBank NM_011172, vs mice given only isoproterenol): −2.0; FC Small inducible cytokine A9 (Scya9) (Ccl9) (Mip-1[…]) (GenBank NM_011338, vs mice given only isoproterenol): −2.1; FC Interferon-related developmental regulator 1 (Ifrd1) (GenBank NM_013562, vs mice given only isoproterenol): −1.6; FC Methyl-CpG binding domain protein 1 (Mbd1) (GenBank NM_013594, vs mice given only isoproterenol): −2.6; FC Metallothionein 1 (Mt1) (GenBank NM_013602, vs mice given only isoproterenol): −2.4; FC S100 calcium binding protein A8 (calgranulin A) (S100a8) (GenBank NM_013650, vs mice given only isoproterenol): −19.9; FC Mitogen-activated protein kinase kinase kinase 6 (Map3k6) (GenBank NM_016693, vs mice given only isoproterenol): −3.2; FC Tubulin, alpha 8 (Tuba8) (GenBank NM_017379, heart, drug + isoproterenol vs isoproterenol-only mice, CH vs normal FC −3.3): 3.1 fold; FC Small inducible cytokine subfamily B (Cys-X-Cys), member 13 (Scyb13) (Cxcl13) (GenBank NM_018866, vs mice given only isoproterenol): −4.4; FC Ras-related associated with diabetes (Rrad) (GenBank NM_019662, vs mice given only isoproterenol): 2.4; FC Phosphodiesterase 4A, cAMP specific (Pde4a) (GenBank NM_019798, vs mice given only isoproterenol): 1.8; FC Toll-like receptor 4 (TLR4) (GenBank NM_021297, heart, drug + isoproterenol vs isoproterenol-only mice, CH vs normal FC 3.2): −2.6 fold; FC Solute carrier family 43, member 3 (Slc43a3) (GenBank NM_021398, vs mice given only isoproterenol): −2.0; FC Titin immunoglobulin domain protein (Myotilin, Myot) (GenBank NM_021484, heart, drug + isoproterenol vs isoproterenol-only mice, CH vs normal FC 4.8): −3.0 fold; FC Jutophilin 2 (Jph2) (GenBank NM_021566, vs mice given only isoproterenol): 2.1; FC Transformation related protein 53 inducible nuclear protein 1 (Trp53inp1) (GenBank NM_021897, heart, drug + isoproterenol vs isoproterenol-only mice, CH vs normal FC 4.8): −3.5 fold; FC Homocysteine-inducible, endoplasmic reticulum stress-inducible, ubiquitin-like domain member 1 (Herpud1) (GenBank NM_022331, vs mice given only isoproterenol): −3.0; FC Retinol binding protein 7, cellular (Rbp7) (GenBank NM_023462, vs mice given only isoproterenol): −1.6; FC Thioredoxin interacting protein (Txnip) (GenBank NM_023719, heart, drug + isoproterenol vs isoproterenol-only mice, CH vs normal FC 1.8): −3.5 fold; FC F-box only protein 32 (Fbxo32) (GenBank NM_026346, vs mice given only isoproterenol): −4.7; FC Membrane-spanning 4-domains, subfamily A, member 6d (Ms4a6d) (GenBank NM_026835, vs mice given only isoproterenol): −2.2; FC Membrane-spanning 4-domains, subfamily A, member 6B (Ms4a6b) (GenBank NM_027209, vs mice given only isoproterenol): −1.7; FC Leucine-rich alpha-2-glycoprotein (Lrg-pending) (GenBank NM_029796, vs mice given only isoproterenol): −2.9; FC Fibroblast growth factor 16 (Fgf16) (GenBank NM_030614, vs mice given only isoproterenol): 2.8; FC Transcription factor 23 (Tcf23) (GenBank NM_053085, heart, drug + isoproterenol vs isoproterenol-only mice, CH vs normal FC 3.5): −2.3 fold; FC Secretoglobin, family 3A, member 1 (Scgb3a1) (GenBank NM_054037, vs mice given only isoproterenol): −2.2
